Eleven compounds from patent US4305940A, “Benzamides with local anaesthetic and antiarrhythmic activity, salts, and method of preparation thereof and pharmaceutical compositions therefrom” (B.B.R. Boehringer Biochemia Robin S.p.A., priority 1979, dated 1981) can be followed below.

Structures can show the parent of a compound that is named as a salt.

One data set deals with corneal reflux. The experiment in a line: Surface anaesthesia (corneal reflux, conjunctival sac). The settings on record: for Surface anaesthesia DL50/CE50: analogous to therapeutic index, DL50 i.p.; for Surface anaesthesia CE50: concentration in percent achieving 50% of total responses, pH 7 saline, hydrochloride salts; for Surface anaesthesia activity with respect to lidocaine: lidocaine = 1. As for the experimental part: (§1) The data reported hereinbelow relate in every instance to the hydrochloride salts of the individual compounds.
The surface anaesthesia has been determined in rabbits according to the method of M. R. A. Change and H. Lobstein (J. Pharmacol. Exper. Ther., 82, 203, 1944). The compounds dissolved in physiological saline solution of pH 7 were injected into the conjunctival sac and the corneal reflux was induced with the brush of Frey six times at intervals of five minutes for a total period of 40 minutes.

Data set [1] has as its system reflux of contraction of the lower limbs (lumbar plexus). The experiment in a line: Anaesthesia by conduction (lumbar plexus). The class given is in vivo, frogs. The settings on record: for Conduction anaesthesia DL50/t' / Conduction anaesthesia 1/t'max. (c = 1%) with respect to lidocaine: c = 1%; for Conduction anaesthesia DL50/t': DL50 i.p.; for Conduction anaesthesia 1/t'max. (c = 1%) with respect to lidocaine / Conduction anaesthesia DL50/t' relative to lidocaine: lidocaine = 1. The text has this: Anaesthesia by conduction has been determined on frogs according to the method of E. Bulbring and I. Wajda (Journal Pharmacol. Exper. Ther., 85, 78, 1945). The compounds dissolved in physiological saline solution are introduced into the cavity obtained by a transversal incision in the abdomen and separating the viscera in order to expose the lumbar plexus. The period of time necessary to eliminate the reflux of contraction of the lower limbs stimulated by immersion of both posterior legs into hydrochloric acid of increasing concentration between 0.05-0.1-0.2 N for a period not in excess of ten seconds, at intervals of one minute is determined. The extent of anaesthesia of conduction has been determined by measuring the period of time required for each compound in three different concentrations, 0.2%-0.5%-1.0% in order to abolish the reflex of contraction with the concentration of hydrochloric acid indicated hereinabove.

The test system of another data set is Swiss rats. Kind of data set: in vivo. The conditions noted are these: lidocaine = 1. An excerpt:
(§2) The behavior of the animals has then been followed for a period of five days. The DL50 has been determined according to the method of I. T. Litchfield and F. Wilcoxon, (J. Pharmacol. Exper. Ther., 96, 99, 1949). The compound numbers in Table II correspond to the numbers in Table I.

The next data set can be described thus: in vivo. The settings on record: rat, in vivo, ip; 5 days; hydrochloride salts; range in parentheses; read-out: DL50 i.p.
Source text: as §2

Data set [2] relates to response to skin puncture. Kind of data set: Anaesthesia by infiltration (subcutaneous, back puncture). It counts as in vivo, guinea pigs. The settings on record: for Infiltration anaesthesia DL50/CE50: analogous to therapeutic index, DL50 i.p.; for Infiltration anaesthesia CE50: concentration in percent achieving 50% of total responses, hydrochloride salts; for Infiltration anaesthesia DL50/CE50 relative to lidocaine / Infiltration anaesthesia activity with respect to lidocaine: lidocaine = 1. As for the experimental part: The anaesthesia by infiltration has been determined in guinea pigs according to the method of E. Bulbring and I. Wajda, (Journal of Pharmacol. Exper. Ther. 85, 78, 1945). In each experiment, four doses of the substance in 0.25 cc of physiological saline solution is injected subcutaneously on the back after removal of hair. After five minutes, each animal is punctured six times at intervals of […].
The test was repeated every five minutes for a period of 30 minutes. The extent of anaesthesia by infiltration was measured quantitatively by determining the sum of the instances in which the animal remained immobile during the thirty minute period on 36 possible blinks.

Data set [3] has as its system aconitine-induced ventricular arrhythmia. The experiment in a line: Anti-arrhythmic activity, aconitine infusion. It counts as in vivo, Wistar rats. The conditions noted are these: 3 min before aconitine 10 mcg/kg/min. As for the experimental part:
as §1
This determination has been made in Wistar rats, anaesthetized with ethylurethane, (1 g/kg i.p.), according to the method of B. Vargaftig and J. L. Coigner (European Journal Pharmacology, 6, 49, 1969). The compounds dissolved in physiological saline solution, are injected intravenously three minutes prior to the infusion of aconitine, (10 mcg/kg/min.). The extent of anti-arrhythmic activity is determined quantitatively by determining the amount of aconitine necessary to induce ventricular arrhythmia.

Take `Cc1cccc(C)c1NC(=O)c1ccccc1CN1CCCC1` [Compound 4]: in the data set with corneal reflux, the “Surface anaesthesia DL50/CE50” value was determined as 30, the “Surface anaesthesia CE50” value was determined as 1.85% and the “Surface anaesthesia activity with respect to lidocaine” value (shortened to “Surface anaesthesia activity”) is listed as 1.24. In addition, in data set [1], the “Conduction anaesthesia DL50/t'” value turned out to be 55, the “Conduction anaesthesia 1/t'max. (c = 1%) with respect to lidocaine” value (“Conduction anaesthesia 1/t'max. (c = 1%)” below) is listed as 11.1 and the “Conduction anaesthesia DL50/t' relative to lidocaine” value is reported as 4.23. The “DL50 i.p. relative to lidocaine” value with Swiss rats was determined as 0.39. Besides, in the data set “in vivo”, the LD50 at 120 h stood at 55 mg/kg. In data set [2], the “Infiltration anaesthesia DL50/CE50” value came out at 162, the “Infiltration anaesthesia CE50” value came to 0.34%, the “Infiltration anaesthesia DL50/CE50 relative to lidocaine” value is given as 0.86 and the “Infiltration anaesthesia activity with respect to lidocaine” value (from here on “Infiltration anaesthesia activity”) is 2.20.
In the case of `Cc1cccc(C)c1NC(=O)c1cccc(CN2CCCC2)c1` [Compound 5], in the data set with corneal reflux, the “Surface anaesthesia DL50/CE50” value stood at 9, the “Surface anaesthesia CE50” value was 24.12% and the “Surface anaesthesia activity” value is reported as 0.09. Moreover, in data set [1], the “Conduction anaesthesia DL50/t'” value was determined as 225, the “Conduction anaesthesia 1/t'max. (c = 1%)” value came out at 11.1 and the “Conduction anaesthesia DL50/t' relative to lidocaine” value turned out to be 17.31. For the same compound, the “DL50 i.p. relative to lidocaine” value in the data set on Swiss rats stood at 1.58. Moreover, the LD50 at 120 h in the data set “in vivo” worked out at 225 mg/kg. Further, in data set [2], the “Infiltration anaesthesia DL50/CE50” value was determined as 28, the “Infiltration anaesthesia CE50” value turned out to be 8.01%, the “Infiltration anaesthesia DL50/CE50 relative to lidocaine” value is 0.15 and the “Infiltration anaesthesia activity” value came out at 0.09.
Turning to `Cc1cccc(C)c1NC(=O)c1ccc(CN2CCCC2)cc1` [Compound 6], in the data set on corneal reflux, the “Surface anaesthesia DL50/CE50” value came to 13, the “Surface anaesthesia CE50” value stood at 16.03% and the “Surface anaesthesia activity” value is 0.14. In data set [1], the “Conduction anaesthesia DL50/t'” value is 107, the “Conduction anaesthesia 1/t'max. (c = 1%)” value was found to be 5.5 and the “Conduction anaesthesia DL50/t' relative to lidocaine” value is recorded as 8.31. For the same compound, in the data set with Swiss rats, the “DL50 i.p. relative to lidocaine” value is reported as 1.51. Moreover, in “in vivo”, the LD50 at 120 h stood at 215 mg/kg. In data set [2], the “Infiltration anaesthesia DL50/CE50” value was determined as 48, the “Infiltration anaesthesia CE50” value turned out to be 4.50%, the “Infiltration anaesthesia DL50/CE50 relative to lidocaine” value worked out at 0.25 and the “Infiltration anaesthesia activity” value was determined as 0.16.
Take `Cc1cccc(C)c1NC(=O)c1ccccc1CN1CCCCC1` [Compound 7]: in the data set with corneal reflux, the “Surface anaesthesia DL50/CE50” value turned out to be 290, the “Surface anaesthesia CE50” value was found to be 0.30% and the “Surface anaesthesia activity” value was found to be 7.66. In data set [1], the “Conduction anaesthesia DL50/t'” value came to 87, the “Conduction anaesthesia 1/t'max. (c = 1%)” value came out at 11.1 and the “Conduction anaesthesia DL50/t' relative to lidocaine” value worked out at 6.69. Moreover, the “DL50 i.p. relative to lidocaine” value in the data set with Swiss rats was found to be 0.61. In addition, the LD50 at 120 h in “in vivo” came out at 87.1 mg/kg. In addition, in data set [2], the “Infiltration anaesthesia DL50/CE50” value came to 414, the “Infiltration anaesthesia CE50” value amounted to 0.21%, the “Infiltration anaesthesia DL50/CE50 relative to lidocaine” value amounted to 2.19 and the “Infiltration anaesthesia activity” value came out at 3.57.
With `Cc1cccc(C)c1NC(=O)c1cccc(CN2CCCCC2)c1` [Compound 8], in the data set with corneal reflux, the “Surface anaesthesia DL50/CE50” value was 73, the “Surface anaesthesia CE50” value came out at 2.82% and the “Surface anaesthesia activity” value worked out at 0.82. Also, in data set [1], the “Conduction anaesthesia DL50/t'” value is recorded as 41, the “Conduction anaesthesia 1/t'max. (c = 1%)” value is 2.2 and the “Conduction anaesthesia DL50/t' relative to lidocaine” value came to 3.15. Also, the “DL50 i.p. relative to lidocaine” value with Swiss rats was found to be 1.44. Moreover, in the data set “in vivo”, the LD50 at 120 h was determined as 205 mg/kg. For the same compound, in data set [2], the “Infiltration anaesthesia DL50/CE50” value is recorded as 569, the “Infiltration anaesthesia CE50” value was found to be 0.36%, the “Infiltration anaesthesia DL50/CE50 relative to lidocaine” value is 3.01 and the “Infiltration anaesthesia activity” value was 2.08.
For the compound `Cc1cccc(C)c1NC(=O)c1ccc(CN2CCCCC2)cc1` [Compound 9, 2,6-Dimethylanilide of 4-piperidinomethyl-benzoic acid], in the data set on corneal reflux, the “Surface anaesthesia DL50/CE50” value is on record as 109, the “Surface anaesthesia CE50” value is listed as 1.92% and the “Surface anaesthesia activity” value was found to be 1.20. For the same compound, in data set [1], the “Conduction anaesthesia DL50/t'” value stood at 19, the “Conduction anaesthesia 1/t'max. (c = 1%)” value was 1.0 and the “Conduction anaesthesia DL50/t' relative to lidocaine” value worked out at 1.46. In the data set on Swiss rats, the “DL50 i.p. relative to lidocaine” value is on record as 1.48. The LD50 at 120 h in the data set “in vivo” came to 210 mg/kg. Moreover, in data set [2], the “Infiltration anaesthesia DL50/CE50” value turned out to be 750, the “Infiltration anaesthesia CE50” value was 0.28%, the “Infiltration anaesthesia DL50/CE50 relative to lidocaine” value is reported as 3.97 and the “Infiltration anaesthesia activity” value was found to be 2.67.
On to `Cc1cccc(C)c1NC(=O)c1ccccc1CN1CCOCC1` [Compound 10], for which, in the data set with corneal reflux, the “Surface anaesthesia DL50/CE50” value is 34, the “Surface anaesthesia CE50” value was 6.86% and the “Surface anaesthesia activity” value was 0.34. Also, in data set [1], the “Conduction anaesthesia DL50/t'” value worked out at 21, the “Conduction anaesthesia 1/t'max. (c = 1%)” value came to 1.0 and the “Conduction anaesthesia DL50/t' relative to lidocaine” value turned out to be 1.61. Also, the “DL50 i.p. relative to lidocaine” value with Swiss rats worked out at 1.62. The LD50 at 120 h in “in vivo” was determined as 230 mg/kg. Besides, in data set [2], the “Infiltration anaesthesia DL50/CE50” value was found to be 98, the “Infiltration anaesthesia CE50” value amounted to 2.34%, the “Infiltration anaesthesia DL50/CE50 relative to lidocaine” value stood at 0.52 and the “Infiltration anaesthesia activity” value came to 0.32.
Consider `Cc1cccc(C)c1NC(=O)c1cccc(CN2CCOCC2)c1` [Compound 11], for which, in the data set on corneal reflux, the “Surface anaesthesia DL50/CE50” value came to 22, the “Surface anaesthesia CE50” value worked out at 11.90% and the “Surface anaesthesia activity” value is on record as 0.19. In addition, in data set [1], the “Conduction anaesthesia DL50/t'” value was found to be 29, the “Conduction anaesthesia 1/t'max. (c = 1%)” value is reported as 1.2 and the “Conduction anaesthesia DL50/t' relative to lidocaine” value came out at 2.15. The “DL50 i.p. relative to lidocaine” value in the data set on Swiss rats is 1.83. In “in vivo”, the LD50 at 120 h came out at 260 mg/kg. Further, in data set [2], the “Infiltration anaesthesia DL50/CE50” value is recorded as 273, the “Infiltration anaesthesia CE50” value is 0.95%, the “Infiltration anaesthesia DL50/CE50 relative to lidocaine” value was found to be 1.44 and the “Infiltration anaesthesia activity” value is on record as 0.79.
Take `Cc1cccc(C)c1NC(=O)c1ccc(CN2CCOCC2)cc1` [Compound 12]: in the data set with corneal reflux, the “Surface anaesthesia DL50/CE50” value stood at 82, the “Surface anaesthesia CE50” value stood at 2.82% and the “Surface anaesthesia activity” value worked out at 0.82. Also, in data set [1], the “Conduction anaesthesia DL50/t'” value worked out at 57, the “Conduction anaesthesia 1/t'max. (c = 1%)” value is recorded as 2.7 and the “Conduction anaesthesia DL50/t' relative to lidocaine” value turned out to be 4.46. For the same compound, the “DL50 i.p. relative to lidocaine” value with Swiss rats is 1.62. Moreover, in the data set “in vivo”, the LD50 at 120 h worked out at 230 mg/kg. In data set [2], the “Infiltration anaesthesia DL50/CE50” value came to 102, the “Infiltration anaesthesia CE50” value is on record as 2.25%, the “Infiltration anaesthesia DL50/CE50 relative to lidocaine” value stood at 0.54 and the “Infiltration anaesthesia activity” value is recorded as 0.33.
Consider `CCN(CC)CC(=O)Nc1c(C)cccc1C` [Lidocaine hydrochloride, reference compound], for which the “Aconitine i.v. necessary to induce ventricular arrhythmia” value turned out to be 41 ± 4 µg/kg in data set [3] (12.5 mg/kg i.v.) and 54 ± 5 µg/kg in data set [3] (25.0 mg/kg i.v.).
Turning to `C=C[C@H]1C[N@@]2CC[C@H]1C[C@@H]2[C@@H](O)c1ccnc2ccc(OC)cc12` [Quinidine sulfate, reference compound], the “Aconitine i.v. necessary to induce ventricular arrhythmia” value in data set [3] (10.0 mg/kg i.v.) was 50 ± 3 µg/kg; in data set [3] (40.0 mg/kg i.v.), 88 ± 11 µg/kg.
